From patent US20250339569A1, “CARBONIC ANHYDRASE IX LIGANDS” (priority 2021, published 2025)

Legend:
Format in all cases: in vivo, NMRI nude mice
[1] = Biodistribution study (SPECT/CT) in SK-RC-52 tumor-bearing mice with or without gelofusine; conditions: female, NMRI nude, mouse, in vivo, iv, total radioactivity
Procedure: (§1) The effect on tumor uptake of prior injection of gelofusine for kidney protection was investigated in mice bearing the SK-RC-52 tumor. Biodistribution was evaluated using in vivo SPECT/CT imaging. Prior to the in vivo study the compounds (ligands) were initially radiolabeled with In-111 and the stability of radiolabeled compounds was evaluated in buffer at three different timepoints.
(§2) The study was performed in female NMRI nude mice (approximately 6 weeks of age) from Janvier Labs, France, housed up to 5 mice per cage.
(§3) The column was washed with 2 mL water, and then the final product was eluted from the column in EtOH solution (50%) • The sample was formulated in PBS to the final concentration of 150 MBq/mL and 5 nmol/mL.
(§4) SK-RC-52 cells were cultured in RPMI 1640 with GlutaMax-I (Thermo Fisher Scientific #61870044) supplemented with 10% fetal bovine serum+1% penicillin/streptomycin, harvested, washed twice in RPMI 1640 and resuspended at 2×10^7 cells/mL in RPMI 1640. HT-29 cells were cultured in McCoy's 5a Medium Modified (Sigma #M9309). For inoculation of HT-29 cells, cells were harvested, washed twice in PBS and resuspended at 5×10^7 cells/mL in PBS. Cells were kept on ice until inoculation.
(§5) Animals were anaesthetized (isoflurane, 2-4% in ambient air supplemented with 100% 02) prior to tumor inoculation. The tumor cells (100 μL suspension of either SK-RC-52 cells (2×10^6 cells/animal) or HT-29 cells (5×10^6 cells/animal)) were subcutaneously inoculated in the right flank using a 1-mL syringe equipped with a 27 G needle. Tumor growth and animal weight were measured twice per week. Tumor size was measured by caliper and the volume was estimated using the following formula: 0.52×(length×width^2). When tumor sizes reached 150-250 mm^3, animals were randomized into groups (n=3) of similar average tumor volume and body weight.
(§6) Animals were injected intravenously with In-111-labeled compounds (single bolus, 22.3-31.2 MBq, ˜1 nmol ligand, injection volume: 100 μL) in the lateral tail vein using a 29 G syringe.
(§7) CT was performed with helical scan, 300 ms exposure, reconstruction resolution of 250 μm. SPECT was performed with multi-pinhole scan and a 30 s frame time. For the quantification of the radioactivity uptake, regions of interests (ROIs) were drawn over the tumor, kidney, liver, and heart (estimate of blood) identified on the images. Uptake was expressed as percent of injected dose per gram tissue (% ID/g).

SK-RC-52 tumor = assay: as above; conditions: mouse, in vivo
Procedure: as §1, §2, §3, §4, §5, §6, §7

HT-29 tumor = assay: Biodistribution study (SPECT/CT) in HT-29 tumor-bearing mice; conditions: mouse, in vivo
Procedure: as §1, §2, §3, §4, §5, §6, §7

[2] = as above; conditions: female, NMRI nude, mouse, in vivo, iv, total radioactivity
Procedure: as §1, §2, §3, §4, §5, §6, §7

[3] = Tumor/Blood uptake ratio at 4 h p.i.
[4] = Tumor/Liver uptake ratio at 4 h p.i.

With `CC(C)C[C@@H]1NC(=O)[C@H](Cc2ccc(NC(=O)CCS(N)(=O)=O)cc2)NC(=O)[C@H](CC(=O)O)NC(=O)[C@H]2CCCN2C(=O)[C@H](CCC(=O)O)NC(=O)[C@@H](NC(=O)[C@H](CCC(N)=O)NC(=O)CN2CCN(CC(=O)O)CCN(CC(=O)O)CCN(CC(=O)O)CC2)CSCc2cccc(c2)CSC[C@@H](C(N)=O)NC(=O)[C@H](CO)NC(=O)[C@H](Cc2c[nH]c3ccccc23)NC(=O)[C@H]([C@@H](C)O)NC1=O` [DPI-4501, DOTA-Gln-[Cys(3MeBn)-Glu-pro-Asp-Aph(SaPr)-Leu-Thr-Trp-Ser-Cys]-NH2] the tissue uptake at 4 h ([1]; Blood uptake at 4 h p.i.) was 0.05 ± 0.01 %ID/g, the tissue uptake at 4 h ([1]; Liver uptake at 4 h p.i.) was 0.08 ± 0.01 %ID/g and the tissue uptake ([1]; Peak Tumor Uptake) was 7.17 ± 1.92 %ID/g. For the same compound, the tissue to tissue ratio at 4 h [1, 3] was 128 ± 20.3, the tissue to tissue ratio at 4 h [1, 4] was 70.2 ± 17 and the “Peak Tumor Uptake” value (SK-RC-52 tumor; female, NMRI nude, iv) was 6.01 ± 0.39 % ID/g. The “Blood uptake at 4 h p.i.” value (SK-RC-52 tumor; female, NMRI nude, iv, 4 h) was 0.03 ± 0.003 % ID/g, the “Liver uptake at 4 h p.i.” value (SK-RC-52 tumor; female, NMRI nude, iv, 4 h) was 0.07 ± 0.01 % ID/g and the “Tumor/Blood uptake ratio at 4 h p.i.” value (SK-RC-52 tumor; female, NMRI nude, iv, 4 h) was 178.6 ± 39.3. The “Tumor/Liver uptake ratio at 4 h p.i.” value (SK-RC-52 tumor; female, NMRI nude, iv, 4 h) was 81.4 ± 14.0, the “Time to peak uptake in tumor” value (SK-RC-52 tumor) was 1 h and the “Time to peak uptake in tumor” value (HT-29 tumor) was 2 h. The “% remaining tumor uptake at 24 h p.i.” value (HT-29 tumor; 24 h) was 80 ± 4.4%, the tissue uptake at 4 h ([2]; Blood uptake at 4 h p.i.) was 0.04 ± 0.005 %ID/g and the tissue uptake at 24 h ([2]; Kidney uptake at 24 h p.i.) was 2.16 ± 0.36 %ID/g. For the same compound, the tissue uptake at 4 h ([2]; Liver uptake at 4 h p.i.) was 0.12 ± 0.01 %ID/g, the tissue uptake ([2]; Peak Kidney uptake) was 5.61 ± 0.57 %ID/g and the tissue uptake ([2]; Peak Tumor Uptake) was 3.81 ± 0.26 %ID/g. The tissue to tissue ratio at 4 h [2, 3] was 104 ± 10.2, the tissue to tissue ratio at 4 h [2, 4] was 29.8 ± 2.5 and the tissue to tissue ratio at 24 h ([2]; Tumor/kidney uptake ratio at 24 h p.i.) was 1.5 ± 0.1.
